Data taken from PubChem BioAssay AID248 (DTP/NCI, 2004).
Inconclusive results and toxic doses are left out. Rule as the data show it: active = T/C of 150% or more; inactive = T/C below 125%.

System: L1210 leukemia ip in BDF1 mice, survival T/C
Assay: NCI In Vivo Anticancer Drug Screen. Data for tumor model L1210 Leukemia (intraperitoneal) in B6D2F1 (BDF1) mice
Conditions: endpoint: mean survival time, higher = longer survival
In short: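 Value reflects the ratio of survival in compound-treated mice to survival in vehicle-treated controls, with both groups carrying the same transplanted tumor.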

[1] = dose: 100.0 mg/kg/injection, schedule: Q01DX001 (ip), vehicle: saline
[2] = dose: 200.0 mg/kg/injection, schedule: Q01DX001 (ip), vehicle: saline
[3] = dose: 400.0 mg/kg/injection, schedule: Q01DX001 (ip), vehicle: saline
[4] = dose: 100.0 mg/kg/injection, schedule: Q04DX003 (ip), vehicle: Klucel (hydroxypropylcellulose) (HPC)
[5] = dose: 200.0 mg/kg/injection, schedule: Q04DX003 (ip), vehicle: Klucel (hydroxypropylcellulose) (HPC)
[6] = dose: 400.0 mg/kg/injection, schedule: Q04DX003 (ip), vehicle: Klucel (hydroxypropylcellulose) (HPC)
[7] = dose: 100.0 mg/kg/injection, schedule: Q01DX009 (ip), vehicle: Klucel (hydroxypropylcellulose) (HPC)
[8] = dose: 200.0 mg/kg/injection, schedule: Q01DX009 (ip), vehicle: Klucel (hydroxypropylcellulose) (HPC)
[9] = dose: 400.0 mg/kg/injection, schedule: Q01DX009 (ip), vehicle: Klucel (hydroxypropylcellulose) (HPC)
[10] = dose: 100.0 mg/kg/injection, schedule: Q01DX001 (ip), vehicle: carboxymethylcellulose (CMC)
[11] = dose: 200.0 mg/kg/injection, schedule: Q01DX001 (ip), vehicle: carboxymethylcellulose (CMC)
[12] = dose: 400.0 mg/kg/injection, schedule: Q01DX001 (ip), vehicle: carboxymethylcellulose (CMC)
[13] = dose: 100.0 mg/kg/injection, schedule: Q01DX001 (ip), vehicle: saline with Tween-80
[14] = dose: 200.0 mg/kg/injection, schedule: Q01DX001 (ip), vehicle: saline with Tween-80
[15] = dose: 400.0 mg/kg/injection, schedule: Q01DX001 (ip), vehicle: saline with Tween-80
[16] = dose: 100.0 mg/kg/injection, schedule: Q01DX001 (ip), vehicle: Klucel (hydroxypropylcellulose) (HPC)
[17] = dose: 200.0 mg/kg/injection, schedule: Q01DX001 (ip), vehicle: Klucel (hydroxypropylcellulose) (HPC)
[18] = dose: 400.0 mg/kg/injection, schedule: Q01DX001 (ip), vehicle: Klucel (hydroxypropylcellulose) (HPC)
[19] = dose: 100.0 mg/kg/injection, schedule: Q01DX009 (ip), vehicle: saline
[20] = dose: 200.0 mg/kg/injection, schedule: Q01DX009 (ip), vehicle: saline
[21] = dose: 400.0 mg/kg/injection, schedule: Q01DX009 (ip), vehicle: saline
[22] = dose: 100.0 mg/kg/injection, schedule: Q01DX009 (ip), vehicle: saline with Tween-80
[23] = dose: 200.0 mg/kg/injection, schedule: Q01DX009 (ip), vehicle: saline with Tween-80
[24] = dose: 400.0 mg/kg/injection, schedule: Q01DX009 (ip), vehicle: saline with Tween-80
[25] = dose: 50.0 mg/kg/injection, schedule: Q01DX001 (ip), vehicle: saline
[26] = dose: 100.0 mg/kg/injection, schedule: Q04DX003 (ip), vehicle: saline with Tween-80
[27] = dose: 200.0 mg/kg/injection, schedule: Q04DX003 (ip), vehicle: saline with Tween-80
[28] = dose: 400.0 mg/kg/injection, schedule: Q04DX003 (ip), vehicle: saline with Tween-80

Measured: T/C

Cc1ccc2cccc3c(=O)c4cccc5cccc(sc1c23)c54
inactive: [1] 88 % of control | dose: 100.0 mg/kg/injection, schedule: Q01DX009 (ip), vehicle: other 92 % of control | [2] 97 % of control | dose: 200.0 mg/kg/injection, schedule: Q01DX009 (ip), vehicle: other 92 % of control | [3] 89 % of control | dose: 400.0 mg/kg/injection, schedule: Q01DX009 (ip), vehicle: other 92 % of control

N#C/C(=C/c1ccccc1B(O)O)C(=O)O
inactive: [4] 89 % of control | [5] 93 % of control | [6] 95 % of control

CCOC(=O)c1ccc(NC(=O)Oc2cc(=O)oc3ccccc23)cc1
inactive: [7] 97 % of control | [8] 95 % of control | [9] 96 % of control

CCOC(=O)P(=O)(OCC)OCC
inactive: [10] 101 % of control | [11] 95 % of control | [12] 104 % of control

Cc1cc[n+](CCCCCCCCCCO)cc1C
inactive: dose: 87.5 mg/kg/injection, schedule: Q01DX001 (ip), vehicle: saline 97 % of control

CC1NC(=O)OC12CCCCC2 (stereo unspecified)
inactive: [13] 96 % of control | [14] 92 % of control | [15] 92 % of control

O=C(CCO)Nc1cccc(Cl)c1
inactive: [16] 98 % of control | [7] 93 % of control | [17] 101 % of control | [8] 88 % of control | [18] 91 % of control | [9] 92 % of control

COc1cc2nc(/C=C/c3nc4cc(OC)c(OC)cc4[nH]3)[nH]c2cc1OC
inactive: dose: 25.0 mg/kg/injection, schedule: Q01DX001 (ip), vehicle: saline with Tween-80 100 % of control | dose: 50.0 mg/kg/injection, schedule: Q01DX001 (ip), vehicle: saline with Tween-80 100 % of control | [13] 94 % of control

CCCNC(=O)/C=C\C(=O)O
inactive: [1] 108 % of control | [19] 93 % of control | [2] 101 % of control | [20] 90 % of control | [3] 106 % of control | [21] 95 % of control

CC(=O)NC(CO)(CO)CO
inactive: [1] 94 % of control | [19] 94 % of control | [2] 102 % of control | [20] 89 % of control | [3] 98 % of control | [21] 90 % of control

CCOC(=O)C(=N\Nc1ccc(Cl)cc1Cl)/C(C)=N\NC(N)=S
inactive: dose: 75.0 mg/kg/injection, schedule: Q01DX001 (ip), vehicle: saline 95 % of control | dose: 300.0 mg/kg/injection, schedule: Q01DX001 (ip), vehicle: saline 104 % of control

C=C1C(=O)O[C@@H]2[C@H]3O[C@]3(C)CCC=C(C)CC[C@@H]12
inactive: dose: 6.25 mg/kg/injection, schedule: Q01DX009 (ip), vehicle: alcohol 97 % of control | dose: 12.5 mg/kg/injection, schedule: Q01DX009 (ip), vehicle: alcohol 103 % of control | dose: 25.0 mg/kg/injection, schedule: Q01DX009 (ip), vehicle: alcohol 95 % of control

Cc1nnc(C(N)=O)c(=O)[nH]1
inactive: [16] 109 % of control | [17] 120 % of control | [18] 97 % of control

O=S(=O)(O)C(O)c1cccc2ccccc12 (stereo unspecified)
inactive: [22] 105 % of control | [23] 105 % of control | [24] 115 % of control

CC1(C)N=C(N)N=C(N)N1c1cc(Cl)ccc1Cl
inactive: dose: 12.0 mg/kg/injection, schedule: Q04DX003 (ip), vehicle: saline 117 % of control | dose: 12.5 mg/kg/injection, schedule: Q01DX001 (ip), vehicle: saline 98 % of control | dose: 25.0 mg/kg/injection, schedule: Q01DX001 (ip), vehicle: saline 90 % of control | dose: 25.0 mg/kg/injection, schedule: Q01DX009 (ip), vehicle: saline 101 % of control | dose: 25.0 mg/kg/injection, schedule: Q04DX003 (ip), vehicle: saline 100 % of control | [25] 98 % of control | dose: 50.0 mg/kg/injection, schedule: Q01DX009 (ip), vehicle: saline 97 % of control | dose: 50.0 mg/kg/injection, schedule: Q04DX003 (ip), vehicle: saline 103 % of control

Cc1ccccc1OCC(=O)Nc1ccc(-c2ccc(NC(=O)COc3ccccc3C)cc2)cc1
inactive: dose: 100.0 mg/kg/injection, schedule: Q04DX002 (ip), vehicle: gum acacia 92 % of control | dose: 200.0 mg/kg/injection, schedule: Q04DX002 (ip), vehicle: gum acacia 95 % of control | dose: 400.0 mg/kg/injection, schedule: Q04DX002 (ip), vehicle: gum acacia 100 % of control

CC(C)CCCC(C)C1CCC2C3CCC4CC(N5CCCC5)=CCC4(C)C3CCC12C (stereo unspecified)
inactive: dose: 75.0 mg/kg/injection, schedule: Q04DX003 (sc), vehicle: steriod suspending solution 96 % of control | dose: 150.0 mg/kg/injection, schedule: Q04DX003 (sc), vehicle: steriod suspending solution 96 % of control | dose: 300.0 mg/kg/injection, schedule: Q04DX003 (sc), vehicle: steriod suspending solution 102 % of control

Cc1ccc2cc3c(ccc4ccccc43)c3c2c1CC3
inactive: [26] 119 % of control | [27] 120 % of control | [28] 120 % of control

O=C(c1ccc(OC(F)F)cc1)N1CCCCC1
inactive: [4] 94 % of control | [5] 93 % of control | [6] 96 % of control

CC(=O)NC1CCC(S(=O)(=O)N2N=NC3CCCCC32)CC1 (stereo unspecified)
inactive: [22] 98 % of control | [23] 93 % of control | [24] 92 % of control

COC(=O)c1ccc(C(=O)O)cc1
inactive: [26] 100 % of control | [27] 102 % of control | [28] 91 % of control

COc1cc([N+](=O)[O-])c2nc(Cl)ccc2c1
inactive: [10] 100 % of control | [11] 88 % of control | [12] 97 % of control

Nc1cccc(OCCc2ccccc2)c1
inactive: [13] 96 % of control | [14] 94 % of control | [15] 96 % of control

COCC(=O)c1ccccc1
inactive: [25] 96 % of control | [1] 98 % of control | [2] 98 % of control | [3] 93 % of control

Cc1[nH]c2ccccc2c1C(=O)Cc1ccc(Cl)c(Cl)c1
inactive: [25] 101 % of control | [1] 98 % of control | [2] 98 % of control | [3] 101 % of control
